Structures are written as SMILES.

For assay [1], the target named is neutral endopeptidase (NEP), purified NEP (E.C.3.4.24.11) (Homo sapiens, UniProt P08473). Kind of assay: In vitro investigation of the NEP-inhibitory effect (hydrolytic degradation of met-enkephalin). Format: biochemical. The note with it: substrate met-enkephalin, 37° C., pH 7.4. As for the experimental part:
2. In vitro investigation of the NEP-inhibitory effect of the substances and determination of the affinity of the substance molecules for the enzyme molecule. […] The Ki (inhibitor constant) of each substance was determined as a measure of its inhibitory activity. The Ki of a test substance with enzyme-inhibiting activity is the dissociation constant for the enzyme/test substance complex or the (enzyme/substrate)--test substance complex and has units of concentration.
To carry out the test, respective 100 μl samples of various incubation solutions containing 10 ng of purified NEP (E.C.3.4.24.11) and in each case different amounts of test substance and of substrate (met-enkephalin)and 50 mM tris buffer (=tris(hydroxymethyl)aminomethane/HCl, pH 7.4) were prepared.
For each test substance, 24 different incubation solutions were prepared with 3 different test substance concentrations respectively combined with met-enkephalin contents of 2, 5, 7, 10, 12, 15, 40 and 100 μm.
In each test, two types of control incubation solutions were also processed, on the one hand enzyme controls which contain no test substance, and on the other hand substrate controls which contain neither enzyme nor test substance.
The incubation solutions were incubated in a shaking water bath at 37° C. for 45 minutes. The enzyme reaction was started after 15 minutes by adding the substrate (metenkephalin) and was stopped at the end of the incubation time by heating at 95° C. for 5 minutes. The stopped incubation solution was then centrifuged at 12,000×g for 3 minutes, and the concentrations of unreacted substrate and of hydrolysis products formed by the enzymatic reaction were determined in the supernatant. For this purpose, samples of each of the respective supernatants were fractionated by HPLC (high-pressure liquid chromatography) on hydrophobized silica gel, and the products of the enzymatic reaction and unreacted substrate were determined by photometry at a wavelength of 205 nm. The HPLC separation was carried out using a column (4.6×250 mm) which contains Encapharm™ 100 RP18 having an average particle size of 5 μm as reversed phase separation material. The solvent flow rate was 1.4 ml/min, and the column was warmed to 40° C. Mobile phase A was 5 mM H3 PO4, pH 2.5, and mobile phase B was acetonitrile +1% 5 mM H3 PO4, pH 2.5.
The Ki for each test substance was calculated in a known manner from the concentrations of hydrolysis products and unreacted substrate measured in the various samples. […] The example numbers indicated in Table B refer to the following preparation examples.

Assay [2] deals with T1, endothelin-converting enzyme (ECE) (Homo sapiens, UniProt P42892).
T1 construct: expressed in transfected cells; host or cells: CHO cells (Chinese hamster ovary), membrane fraction
T1 sequence (P42892 1-770): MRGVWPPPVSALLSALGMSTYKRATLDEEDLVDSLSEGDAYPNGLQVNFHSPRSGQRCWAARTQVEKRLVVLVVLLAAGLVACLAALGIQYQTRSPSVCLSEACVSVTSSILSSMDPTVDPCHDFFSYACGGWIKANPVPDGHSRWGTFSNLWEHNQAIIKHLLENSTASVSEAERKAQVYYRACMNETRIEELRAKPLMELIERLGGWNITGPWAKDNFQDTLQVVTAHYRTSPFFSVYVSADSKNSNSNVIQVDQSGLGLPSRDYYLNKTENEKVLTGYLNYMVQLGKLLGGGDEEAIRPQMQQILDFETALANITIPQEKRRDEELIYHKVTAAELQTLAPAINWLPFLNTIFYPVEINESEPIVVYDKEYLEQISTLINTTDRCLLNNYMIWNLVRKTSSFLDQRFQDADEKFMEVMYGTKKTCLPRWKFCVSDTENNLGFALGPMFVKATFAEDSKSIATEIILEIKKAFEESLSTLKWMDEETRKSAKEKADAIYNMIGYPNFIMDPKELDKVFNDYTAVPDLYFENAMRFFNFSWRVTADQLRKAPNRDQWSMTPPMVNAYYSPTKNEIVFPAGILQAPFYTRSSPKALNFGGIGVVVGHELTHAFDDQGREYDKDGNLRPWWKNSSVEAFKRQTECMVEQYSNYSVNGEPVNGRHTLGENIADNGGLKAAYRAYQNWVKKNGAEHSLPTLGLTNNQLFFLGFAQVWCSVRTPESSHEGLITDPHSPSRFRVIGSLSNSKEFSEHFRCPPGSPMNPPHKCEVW
Kind of assay: In vitro investigation of the ECE-inhibitory effect (recombinant human ECE in CHO cell membrane fraction). Format: biochemical. The note with it: 24 μM synthetic peptide substrate, pH 7.0, 37° C., 60 min. As for the experimental part: 3. In vitro investigations of the ECE-inhibitory effect of the substances.
The IC50 of the substances was determined as a measure of their inhibitory activity. The IC50 of a test substance with enzyme-inhibiting activity is the concentration of the test substance at which 50% of the enzymatic activity of ECE is inhibited.
Preparation of the ECE-containing endothelial cell membrane fraction.
Egg cells from the Chinese hamster (Chinese hamster ovary cells, hereinafter CHO cells) in which there was recombinant expression of human ECE [see Schmidt et al., Federation of European Biochemical Societies Letters 356 238-43 (1994)] were lysed, and the cell membranes were removed by centrifugation at 10,000×g for 10 min. The cell membranes were washed by resuspension and repeated centrifugation three times. The ECE-containing cell membrane fraction was resuspended in 100 mM tris/HCl buffer (tris(hydroxymethyl)aminomethane/HCl, pH 7.0, containing 250 mM NaCl) and stored frozen at -70° C. before the enzyme test.
To carry out the test, respective 100 μl samples of various incubation solutions each containing 5 μg protein from an ECE-containing preparation of endothelial cell membranes and different amounts of test substance and 24 μM substrate (synthetic peptide: H2 N-Asp-Ile-Ala-Trp-Phe-Asn-Thr-Pro-Glu-His-Val-Val-Pro-Tyr-Gly-Leu-Gly-COOH) (SEQ ID NO:1) and 100 mM tris buffer (tris(hydroxymethyl)aminomethane/HCl, pH 7.0, containing 250 mM sodium chloride) were prepared. […]
The incubation solutions were preincubated at 37° C. for 15 min before the substrate was added. […] The hydrolysis products H2N-Asp-Ile-Ala-Trp-COOH (SEQ ID NO:2) and H2 N-Phe-Asn-Thr-Pro-Glu-His-Val-Val-Pro-Tyr-Gly-Leu-Gly-COOH (SEQ ID NO:3) formed from the substrate by the enzymatic reaction were determined with the aid of high-pressure liquid chromatography (HPLC). […] The IC50 was calculated for each test substance in a known manner from the concentrations of hydrolysis products measured in the various samples.

Sequence of neutral endopeptidase (NEP), purified NEP (E.C.3.4.24.11) (P08473 whole entry): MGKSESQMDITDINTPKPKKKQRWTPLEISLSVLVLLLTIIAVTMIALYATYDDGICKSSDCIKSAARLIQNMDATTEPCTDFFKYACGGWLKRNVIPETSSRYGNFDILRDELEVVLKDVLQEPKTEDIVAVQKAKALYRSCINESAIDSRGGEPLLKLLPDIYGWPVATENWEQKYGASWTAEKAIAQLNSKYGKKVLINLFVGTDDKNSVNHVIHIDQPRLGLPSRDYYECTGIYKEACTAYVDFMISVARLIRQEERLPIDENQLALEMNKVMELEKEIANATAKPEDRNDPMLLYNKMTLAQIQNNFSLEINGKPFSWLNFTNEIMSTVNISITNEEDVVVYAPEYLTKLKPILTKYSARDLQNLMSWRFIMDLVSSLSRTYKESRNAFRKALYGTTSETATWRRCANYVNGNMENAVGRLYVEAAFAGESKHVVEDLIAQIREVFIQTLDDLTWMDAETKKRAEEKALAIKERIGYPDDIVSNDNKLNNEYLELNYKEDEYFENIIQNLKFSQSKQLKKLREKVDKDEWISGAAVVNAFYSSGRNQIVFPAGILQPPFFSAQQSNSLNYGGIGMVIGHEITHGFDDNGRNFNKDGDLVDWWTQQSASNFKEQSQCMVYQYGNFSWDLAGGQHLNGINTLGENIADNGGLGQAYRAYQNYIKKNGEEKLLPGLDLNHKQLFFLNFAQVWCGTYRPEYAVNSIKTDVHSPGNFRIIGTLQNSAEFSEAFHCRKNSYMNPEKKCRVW

In general, Ki refers to the dissociation constant of the complex between target and ligand, obtained from inhibition or displacement. The term IC50 denotes the concentration that inhibits the measured activity by half. Compound `O=C(O)CN1C(=O)[C@@H](NC(=O)C2(C[C@@H](CCc3ccccc3)C(=O)O)CCCC2)CCc2ccccc21` [Example 8, (3S,2'R)-3-[1-(2'-Carboxy-4'-phenylbutyl)cyclopentane-1-carbonylamino]-2,3,4,5-tetrahydro-2-oxo-1H-1-benzazepine-1-acetic acid] yielded a Ki in assay [1] of 0.4 nM. Moreover, the IC50 in assay [2] was found to be 1290 nM.

These data come from patent publication US5677297A, “Benzazepine-, benzoxazepine- and benzothiazepine-n-acetic acid derivatives, process for their preparation and pharmaceutical compositions containing them” (Solvay Pharmaceuticals GmbH, priority 1995, dated 1997).
